± gives the expanded uncertainty stated by the source.
Details: Crystal

Normal melting temperature (visual observation) [°C] | Normal melting temperature (Visual) [°C] | Compound
148.00 ± 0.39 |  | CC(C)CCC[C@@H](C)[C@H]1CC[C@H]2[C@@H]3CC=C4C[C@@H](O)CC[C@]4(C)[C@H]3CC[C@]12C [.DELTA.5-cholesten-3β-ol]
 | 7.00 | CCCCCCCCCCO [decan-1-ol]

Reference: the NIST ThermoML archive (doi:10.1016/j.fluid.2009.10.009)
